Data set [1] concerns methicillin-sensitive Staphylococcus aureus 209P. As to the kind of experiment: Minimum inhibitory concentration on bacteria. As to conditions: 20 h, read-out: minimum inhibitory concentration (MIC).
Description: (§1) First, 100 μL per hole of a 96-hole test plate was prepared using a Mueller Hinton medium (CAMHB) (and blood added as needed) supplemented with 20 mg/L of Ca^2+ and 10 mg/L of Mg^2+ to give a 2-fold dilution series. […] Each bacterium was cultured in CAMHB (blood added as needed) and added to each of the holes of the test plate at approximately 10000 CFU/mL. The cultures were cultivated at 37° C. for 20 hours, and growth of the bacteria was visually confirmed, and the lowest concentration without growth of the bacteria was defined as the minimum inhibitory concentration (MIC: Minimum Inhibitory Concentration).
(§2) As the bacteria, methicillin-sensitive Staphylococcus aureus 209P, methicillin-resistant Staphylococcus aureus N3115, methicillin-resistant Staphylococcus aureus OM584, vancomycin moderate resistant Staphylococcus aureus Mu50, Pseudomonas aeruginosa wild strain PAO1, Pseudomonas aeruginosa resistance gene quadruple disruption strain YM64, Fecaris ATCC29212, Vancomycin-resistant Fecaris ATCC51299, and Vancomycin-resistant Fecaris NCTC12201 were used.
Data set [2] concerns methicillin-resistant Staphylococcus aureus N3115. As to the kind of experiment: Minimum inhibitory concentration on bacteria. Particulars: 20 h, read-out: minimum inhibitory concentration (MIC).
Description: as §1, §2
In data set [3] the test system is methicillin-resistant Staphylococcus aureus OM584. As to the kind of experiment: Minimum inhibitory concentration on bacteria. Particulars: 20 h, read-out: minimum inhibitory concentration (MIC).
Description: (§3) First, a method for measuring the minimum inhibitory concentration on the bacteria will be described. First, 100 μL per hole of a 96-hole test plate was prepared using a Mueller Hinton medium (CAMHB) (and blood added as needed) supplemented with 20 mg/L of Ca^2+ and 10 mg/L of Mg^2+ to give a 2-fold dilution series. […] Each bacterium was cultured in CAMHB (blood added as needed) and added to each of the holes of the test plate at approximately 10000 CFU/mL. The cultures were cultivated at 37° C. for 20 hours, and growth of the bacteria was visually confirmed, and the lowest concentration without growth of the bacteria was defined as the minimum inhibitory concentration (MIC: Minimum Inhibitory Concentration).
as §2
(§4) Minimum inhibitory concentrations (MIC) were measured against drug-sensitive bacteria and drug-resistant bacteria.
In data set [4] the test system is vancomycin moderate resistant Staphylococcus aureus Mu50. As to the kind of experiment: Minimum inhibitory concentration on bacteria. Particulars: 20 h, read-out: minimum inhibitory concentration (MIC).
Description: as §3, §2, §4
The subject of data set [5] is Pseudomonas aeruginosa wild strain PAO1. The data set is described as follows: Minimum inhibitory concentration on bacteria. Particulars: PAO1, 20 h, read-out: minimum inhibitory concentration (MIC).
Another data set concerns Fecaris ATCC29212. The data set is described as follows: Minimum inhibitory concentration on bacteria. As to conditions: 20 h, read-out: minimum inhibitory concentration (MIC).
The subject of data set [6] is Vancomycin-resistant Fecaris ATCC51299. As to the kind of experiment: Minimum inhibitory concentration on bacteria. As to conditions: 20 h, read-out: minimum inhibitory concentration (MIC).
Description: as §3, §2, §4
The subject of data set [7] is Vancomycin-resistant Fecaris NCTC12201. The data set is described as follows: Minimum inhibitory concentration on bacteria. As to conditions: 20 h, read-out: minimum inhibitory concentration (MIC).
Description: as §1, §2
A short description of data set [8]: Residual amount on SUS substrate after ultrasonic cleaning in water. Particulars: 125 μg/cm^2 applied on SUS substrate. Type of data set: physicochemical. The method, then:
First, chlorhexidine was dissolved in acetone so as to be 1 mg/mL. […] Chlorhexidine gluconate was dissolved in acetone so as to be 1 mg/mL. […] Subsequently, the concentration of chlorhexidine and the concentration of chlorhexidine gluconate eluted in water were measured by UV-Vis (colorimetric method), and an amount of chlorhexidine and an amount of chlorhexidine gluconate remaining on the substrate were back-calculated from the concentration.

The test system of data set [9] is sheep defibrillated blood (red blood cells). As to conditions: 30 min, pH 7.4.
Description: 25 μL of sheep defibrillated blood, a Tyrode solution (NaCl 137 mM, KCl 2.7 mM, CaCl2) 1.0 mM, HEPES 10 mM (pH7.4)), and chlorhexidine gluconate or chlorhexidine solution were mixed. A mixture of 25 μL of sheep defibrillated blood and 975 μL of a Tyrode solution was used as a control, and a mixture of 25 μL of sheep defibrillated blood and 975 μL of purified water was used as a complete hemolysis. The mixtures were left standing at 37° C. for 30 minutes. Thereafter, the mixed liquid is centrifuged, and the supernatant is collected. Absorbance at 545 nm was measured. A hemolysis rate was calculated according to the following formula.
Another data set relates to Candida ATCC12201. The data set is described as follows: Minimum inhibitory concentration on fungi. Type of data set: cell-based. As to conditions: Candida ATCC12201, RPMI1640, 37 °C, 48 hours.
A short description of data set [10]: Calcein efflux rate, viral composition artificial membrane (liposomes). Particulars: for Calcein Efflux Rate (%) Virus Composition Artificial Membrane: 30° C., 30 minutes.
Data set [11] in a line: Calcein efflux rate, bacterial composition artificial membrane (liposomes). As to conditions: for Calcein Efflux Rate (%) Bacterial Composition Artificial Membrane: 30° C., 30 minutes.
Where [12] appears, read: 2 minutes ultrasonic cleaning in 60 ml of water at 25° C.
[13] abbreviates: 10 minutes ultrasonic cleaning in 60 ml of water at 25° C.

Molecules are shown by their SMILES. In brackets after ≈: the same amount, converted by molar mass. Like-named read-outs stand apart in the source and are kept apart here. Where only a bound is given, the exact number is not on record here.

Description for Candida ATCC12201: The bacteria were cultured in the RPMI1640 and added to each of the holes of the test plate at approximately 200 CFU/mL. The cultures were cultivated at 37 °C for 48 hours, and the growth of the bacteria was visually confirmed, and the minimum concentration without the growth of the bacteria was referred as MIC. Candida ATCC12201 was used as the fungi. […] The minimum inhibitory concentration (MIC) was measured against Candida.
Description for Fecaris ATCC29212: as §3, §2, §4

For the molecule `CCn1cc(C(=O)O)c(=O)c2cc(F)c(N3CCNCC3)cc21` [Norfloxacin, norfloxacin], the MIC was 2 µg/mL (≈ 6.26 µM) in data set [1]; 4 µg/mL (≈ 12.5 µM) in data set [2]; not below 64 µg/mL in data set [3]; not below 64 µg/mL in data set [4]; 2 µg/mL (≈ 6.26 µM) in data set [5]; 16 µg/mL (≈ 50.1 µM) with Fecaris ATCC29212. For the same molecule, the values for the MIC in data set [6] and in [7] were 8 µg/mL (≈ 25.1 µM) and 16 µg/mL (≈ 50.1 µM), respectively.

`[H]/N=C(\N/C(=N/[H])NCCCCCCNC(=N)NC(=N)Nc1ccc(Cl)cc1)Nc1ccc(Cl)cc1` [chlorhexidine gluconate]: the entries for the “residual amount on substrate” value in [8] (setting [12]) and in [8] (setting [13]) were 12.7 μg/cm^2 and “could not be calculated”, respectively. The hemolytic activity in data set [9] (0.05 %) is on record as 9.3%; in data set [9] (0.1 %) it was 75.8%.

Molecule `OC(Cn1cncn1)(Cn1cncn1)c1ccc(F)cc1F` [fluconazole] gave an MIC against Candida ATCC12201 of 0.25 µg/mL (≈ 0.816 µM).

Turning to `[H]/N=C(\N/C(=N/[H])NCCCCCCNC(=N)NC(=N)Nc1ccc(Cl)cc1)Nc1ccc(Cl)cc1` [chlorhexidine], the “residual amount on substrate” value was determined as 45.4 μg/cm^2 in data set [8] (setting [12]) and 43.0 μg/cm^2 in [8] (setting [13]). The “Calcein Efflux Rate (%) Virus Composition Artificial Membrane” value in [10] (1 μM (0.51 μg/mL)) is given as 6.5%; in [10] (2 μM (1.01 μg/mL)), 15.9%; in data set [10] (4 μM (2.02 μg/mL)), 39.8%; in data set [10] (8 μM (4.04 μg/mL)), 68.5%; in [10] (16 μM (8.09 μg/mL)), 85.7%; in [10] (32 μM (16.17 μg/mL)) it was 91.6%. For the same molecule, the “Calcein Efflux Rate (%) Virus Composition Artificial Membrane” value in data set [10] (64 μM (32.35 μg/mL)) is given as 108.3%; in data set [10] (128 μM (64.70 μg/mL)), 120.9%. Besides, in data set [10] (virus composition artificial membrane), the “concentration at which calcein was still confirmed to elute” value is 0.51 µg/mL. The “Calcein Efflux Rate (%) Bacterial Composition Artificial Membrane” value in data set [11] (1 μM (0.51 μg/mL)) was −2.7%; in data set [11] (2 μM (1.01 μg/mL)) it was 2.8%; in data set [11] (4 μM (2.02 μg/mL)), 11.5%; in data set [11] (8 μM (4.04 μg/mL)), 54.0%; in [11] (16 μM (8.09 μg/mL)), 91.9%; in [11] (32 μM (16.17 μg/mL)), 95.1%. The “Calcein Efflux Rate (%) Bacterial Composition Artificial Membrane” value is listed as 92.9% in data set [11] (64 μM (32.35 μg/mL)) and 104.5% in [11] (128 μM (64.70 μg/mL)). The “concentration at which calcein was still found to elute” value in [11] (bacterial composition artificial membrane) is 1.01 µg/mL. In addition, the MIC against Candida ATCC12201 was 2 µg/mL (≈ 3.96 µM); in data set [1], 0.5 µg/mL (≈ 0.989 µM); in [2], 1 µg/mL (≈ 1.98 µM); in data set [3], 4 µg/mL (≈ 7.91 µM); in data set [4], 2 µg/mL (≈ 3.96 µM); in data set [5] it was 16 µg/mL (≈ 31.7 µM). Moreover, the figures for the MIC (in the data set on Fecaris ATCC29212; in [6]; in data set [7]) were 2 µg/mL (≈ 3.96 µM), 4 µg/mL (≈ 7.91 µM) and 4 µg/mL (≈ 7.91 µM), respectively. The hemolytic activity in [9] (0.028 %) was determined as 11.7%; in data set [9] (0.056 %), 30.2%.

The values are drawn from patent US20240215584A1, “ARTICLE HAVING ANTIVIRAL PROPERTIES, ARTICLE HAVING ANTIMICROBIAL PROPERTIES, AND ARTICLE HAVING ANTIFUNGAL PROPERTIES” (NATIONAL INSTITUTE OF ADVANCED INDUSTRIAL SCIENCE AND …, priority 2021, published 2024).
